{"source": "PubChem BioAssay AID1259407", "about": "(Chemical Carcinogenesis Research Information System (CCRIS), 2018)", "test_system": "CCRIS mutagenicity, Ames/micronucleus/aberration tests", "assay": "CCRIS mutagenicity studies", "key": {"[1]": {"settings": "Test System: AMES SALMONELLA TYPHIMURIUM, Strain/Indicator: TA98, Metabolic Activation: NONE, Method: PREINCUBATION"}}, "note": "The source made the active and inactive calls. How the calls were made is not given here."}
{"smiles": "Cc1ccc2cc3c(ccc4ccccc43)c3c2c1CC3", "values": [{"measurement": "mutagenic call", "setting": "End Point: In vivo mutagenicity, Test System: Lung, Species: Rat, Strain/Sex: Big Blue/male, Route: Intraperitoneal", "result": "active; positive (11-fold increase in mutant frequency and an increase in transversion t"}, {"measurement": "mutagenic call", "setting": "Test System: AMES SALMONELLA TYPHIMURIUM, Strain/Indicator: TA98, Metabolic Activation: RAT, BLADDER, S-9, PCB, Method: FLUCTUATION TEST", "result": "inactive; negative"}, {"measurement": "mutagenic call", "setting": "Test System: AMES SALMONELLA TYPHIMURIUM, Strain/Indicator: TA98, Metabolic Activation: RAT, LIVER, S-9, PHENOBARBITAL, Method: STANDARD PLATE", "result": "active; positive"}, {"measurement": "mutagenic call", "setting": "Test System: AMES SALMONELLA TYPHIMURIUM, Strain/Indicator: TA100, Metabolic Activation: MOUSE, LIVER, MICROSOMES, BENZO[E]PYRENE AND TCDD, Method: STANDARD PLATE", "result": "active; positive"}, {"measurement": "mutagenic call", "setting": "Test System: AMES SALMONELLA TYPHIMURIUM, Strain/Indicator: TA100, Metabolic Activation: RAT, BLADDER, S-9, PCB, Method: FLUCTUATION TEST", "result": "active; positive"}, {"measurement": "mutagenic call", "setting": "Test System: AMES SALMONELLA TYPHIMURIUM, Strain/Indicator: TA100, Metabolic Activation: RAT, LIVER, S-9, AROCLOR 1254, Method: STANDARD PLATE", "result": "active; positive"}, {"measurement": "mutagenic call", "setting": "Test System: AMES SALMONELLA TYPHIMURIUM, Strain/Indicator: TA1535, Metabolic Activation: RAT, LIVER, S-9, AROCLOR 1254, Method: STANDARD PLATE", "result": "active; positive"}, {"measurement": "mutagenic call", "setting": "Test System: AMES SALMONELLA TYPHIMURIUM, Strain/Indicator: TA1537, Metabolic Activation: RAT, LIVER, S-9, AROCLOR 1254, Method: STANDARD PLATE", "result": "active; positive"}, {"measurement": "mutagenic call", "setting": "Test System: AMES SALMONELLA TYPHIMURIUM, Strain/Indicator: TA1538, Metabolic Activation: MOUSE, LIVER, S-9, PHENOBARBITAL, Method: PREINCUBATION", "result": "active; positive"}, {"measurement": "mutagenic call", "setting": "Test System: AMES SALMONELLA TYPHIMURIUM, Strain/Indicator: TA1538, Metabolic Activation: RAT, LIVER, S-9, AROCLOR 1254, Method: STANDARD PLATE", "result": "active; positive"}, {"measurement": "mutagenic call", "setting": "Test System: AMES SALMONELLA TYPHIMURIUM, Strain/Indicator: TA1538, Metabolic Activation: RAT, LIVER, S-9, PHENOBARBITAL, Method: STANDARD PLATE", "result": "active; positive"}, {"measurement": "mutagenic call", "setting": "Test System: Ames Salmonella typhimurium, Strain/Indicator: TA98, Metabolic Activation: None, Method: Standard plate", "result": "active; positive (animals administered an onion (1% or 5%) diet for 1 month before the m"}, {"measurement": "mutagenic call", "setting": "Test System: Ames Salmonella typhimurium, Strain/Indicator: TA98, Metabolic Activation: S-9, Method: Standard plate", "result": "active; positive (animals administered an onion (1% or 5%) diet for 1 month before the m"}, {"measurement": "mutagenic call", "setting": "Test System: Ames Salmonella typhimurium, Strain/Indicator: TA100, Metabolic Activation: None, Method: Standard plate", "result": "active; positive (animals administered an onion (1% or 5%) diet for 1 month before the m"}, {"measurement": "mutagenic call", "setting": "Test System: Ames Salmonella typhimurium, Strain/Indicator: TA100, Metabolic Activation: S-9, Method: Standard plate", "result": "active; positive (animals administered an onion (1% or 5%) diet for 1 month before the m"}, {"measurement": "mutagenic call", "setting": "Test System: CHINESE HAMSTER OVARY, Strain/Indicator: CHO-K1-BH4 (HGPRT), Metabolic Activation: RAT, LIVER, S-9, AROCLOR, Method: SUSPENSION/PLATE", "result": "active; positive"}, {"measurement": "mutagenic call", "setting": "Test System: CHINESE HAMSTER V-79, Strain/Indicator: V-79/6-THIOGUANINE, Metabolic Activation: RAT, LIVER, S-9, PHENOBARBITAL, Method: STANDARD PLATE", "result": "active; positive"}, {"measurement": "mutagenic call", "setting": "Test System: CHINESE HAMSTER V-79, Strain/Indicator: V-79/8-AZAGUANINE, Metabolic Activation: CELL-MEDIATED, Method: STANDARD PLATE", "result": "active; positive"}, {"measurement": "mutagenic call", "setting": "Test System: E. COLI, Strain/Indicator: WP2 UVRA, Metabolic Activation: HAMSTER, LIVER, S-9, AROCLOR 1254, Method: STANDARD PLATE", "result": "inactive; negative"}, {"measurement": "mutagenic call", "setting": "Test System: E. COLI, Strain/Indicator: WP2 UVRA, Metabolic Activation: HAMSTER, LIVER, S-9, Method: STANDARD PLATE", "result": "inactive; negative"}, {"measurement": "mutagenic call", "setting": "Test System: E. COLI, Strain/Indicator: WP2 UVRA, Metabolic Activation: MOUSE, LIVER, S-9, AROCLOR 1254, Method: STANDARD PLATE", "result": "inactive; negative"}, {"measurement": "mutagenic call", "setting": "Test System: E. COLI, Strain/Indicator: WP2 UVRA, Metabolic Activation: MOUSE, LIVER, S-9, Method: STANDARD PLATE", "result": "inactive; negative"}, {"measurement": "mutagenic call", "setting": "Test System: E. COLI, Strain/Indicator: WP2 UVRA, Metabolic Activation: NONE, Method: STANDARD PLATE", "result": "inactive; negative"}, {"measurement": "mutagenic call", "setting": "Test System: E. COLI, Strain/Indicator: WP2 UVRA, Metabolic Activation: RAT, LIVER, S-9, AROCLOR 1254, Method: STANDARD PLATE", "result": "inactive; negative"}, {"measurement": "mutagenic call", "setting": "Test System: E. COLI, Strain/Indicator: WP2 UVRA, Metabolic Activation: RAT, LIVER, S-9, Method: STANDARD PLATE", "result": "inactive; negative"}, {"measurement": "mutagenic call", "setting": "Test System: UDS HUMAN FIBROBLASTS, Strain/Indicator: THY INCORP (NON-S-PHASE), Metabolic Activation: NONE, Method: LIQUID SCINTILLATION COUNTING", "result": "active; positive"}, {"measurement": "mutagenic call", "setting": "Test System: UDS RODENT HEPATOCYTES, Strain/Indicator: THY INCORP (NON-S-PHASE), Method: LIQUID SCINTILLATION COUNTING", "result": "active; positive"}, {"measurement": "mutagenic call", "setting": "Test System: UDS RODENT PRIMARY CELLS, Strain/Indicator: THY INCORP (NON-S-PHASE), Metabolic Activation: NONE, Method: AUTORADIOGRAPHY", "result": "active; positive"}]}
{"smiles": "c1ccc2scnc2c1", "values": [{"measurement": "mutagenic call", "setting": "Test System: MOUSE LYMPHOMA, Strain/Indicator: L5178Y (TK+/TK-), Metabolic Activation: NONE, Method: SUSPENSION/PLATE", "result": "inactive; negative. reevaluation of results: negative"}, {"measurement": "mutagenic call", "setting": "Test System: MOUSE LYMPHOMA, Strain/Indicator: L5178Y (TK+/TK-), Metabolic Activation: RAT, LIVER, S-9, AROCLOR 1254, Method: SUSPENSION/PLATE", "result": "inactive; negative. reevaluation of results: negative"}]}
{"smiles": "CC(C)NC(=O)/C=C/c1ccc([N+](=O)[O-])o1", "values": [{"measurement": "mutagenic call", "setting": "[1]", "result": "active; positive"}, {"measurement": "mutagenic call", "setting": "Test System: CHINESE HAMSTER V-79, Strain/Indicator: V-79/6-THIOGUANINE, Metabolic Activation: NONE, Method: STANDARD PLATE", "result": "active; positive"}]}
{"smiles": "O=C(O)[C@@H]1CSCN1", "values": [{"measurement": "mutagenic call", "setting": "Test System: AMES SALMONELLA TYPHIMURIUM, Strain/Indicator: TA102, Metabolic Activation: NONE, Method: STANDARD PLATE", "result": "inactive; negative"}, {"measurement": "mutagenic call", "setting": "Test System: AMES SALMONELLA TYPHIMURIUM, Strain/Indicator: TA102, Metabolic Activation: RAT, LIVER, S-9, PHENOBARBITAL, Method: STANDARD PLATE", "result": "inactive; negative"}, {"measurement": "mutagenic call", "setting": "Test System: AMES SALMONELLA TYPHIMURIUM, Strain/Indicator: TA104, Metabolic Activation: NONE, Method: STANDARD PLATE", "result": "inactive; negative"}, {"measurement": "mutagenic call", "setting": "Test System: AMES SALMONELLA TYPHIMURIUM, Strain/Indicator: TA104, Metabolic Activation: RAT, LIVER, S-9, PHENOBARBITAL, Method: STANDARD PLATE", "result": "inactive; negative"}]}
{"smiles": "O=C(O)Cc1ccc(Cl)cc1", "values": [{"measurement": "mutagenic call", "setting": "[1]", "result": "inactive; negative"}, {"measurement": "mutagenic call", "setting": "Test System: AMES SALMONELLA TYPHIMURIUM, Strain/Indicator: TA98, Metabolic Activation: RAT LIVER S-9, PCB, Method: PREINCUBATION", "result": "inactive; negative"}, {"measurement": "mutagenic call", "setting": "Test System: AMES SALMONELLA TYPHIMURIUM, Strain/Indicator: TA100, Metabolic Activation: NONE, Method: PREINCUBATION", "result": "inactive; negative"}, {"measurement": "mutagenic call", "setting": "Test System: AMES SALMONELLA TYPHIMURIUM, Strain/Indicator: TA100, Metabolic Activation: RAT LIVER S-9, PCB, Method: PREINCUBATION", "result": "inactive; negative"}, {"measurement": "mutagenic call", "setting": "Test System: AMES SALMONELLA TYPHIMURIUM, Strain/Indicator: TA104, Metabolic Activation: NONE, Method: PREINCUBATION", "result": "inactive; negative"}, {"measurement": "mutagenic call", "setting": "Test System: AMES SALMONELLA TYPHIMURIUM, Strain/Indicator: TA104, Metabolic Activation: RAT LIVER S-9, PCB, Method: PREINCUBATION", "result": "inactive; negative"}, {"measurement": "mutagenic call", "setting": "Test System: E.COLI, Strain/Indicator: WP2 UVRA, Metabolic Activation: NONE, Method: PREINCUBATION", "result": "inactive; negative"}, {"measurement": "mutagenic call", "setting": "Test System: E.COLI, Strain/Indicator: WP2 UVRA, Metabolic Activation: RAT LIVER S-9, PCB, Method: PREINCUBATION", "result": "inactive; negative"}]}
